From patent publication US20100121108A1, “PROCESS FOR SYNTHESIZING DESVENLAFAXINE FREE BASE AND SALTS OR SOLVATES THEREOF” (MEDICHEM, S.A., priority 2006, published 2010) come the findings set out here.

Data set [1] can be described thus: BET specific surface area (Micromeritics ASAP2010, N2 adsorption). The class given is physicochemical. Conditions: N2 at 77.3 K. As for the experimental part: The BET (Brunauer, Emmett and Teller) specific surface area for desvenlafaxine succinate was measured using a Micromeritics ASAP2010 equipment. Samples for analysis were degassed at 30° C.-70° C. under vacuum for about two hours. The determination of the adsorption of N2 at 77.3° K was measured for relative pressures in the range of 0.05-0.3 for a weighed amount of desvenlafaxine succinate (i.e., approximately 0.5 g).

A short description of data set [2]: Particle size by Malvern Mastersizer S (volume distribution). The format is physicochemical. The protocol: The particle size for desvenlafaxine succinate was measured using a Malvern Mastersizer S particle size analyzer with an MS1 Small Volume Sample Dispersion Unit stirred cell. A 300RF mm lens and a beam length of 2.4 mm were used. Samples for analysis were prepared by dispersing a weighed amount of desvenlafaxine succinate (approximately 0.1 g) in 20 mL of Lecithin Solution, previously prepared by dilution of 1.5 g of Soybean Lecithin to 200 mL of Isopar G. Mix gently until Lecithin dissolves (Lecithin solution). If it is necessary the solution can be sonicated. The suspension was delivered drop-wise to a background corrected measuring cell previously filled with dispersant (Isopar G) until the obscuration reached the desired level. Volume distributions were obtained for three times. Before and after the analysis, purge the sample and flush the MS1 unit with ethanol twice and with the dispersant at least three times. For characterization, the values of D10, D50 and D90 (by volume) were specifically listed, each one being the mean of the […] values available for each characterization parameter.

[3] abbreviates: milled and sieved desvenlafaxine succinate.

In data set [1], `CN(C)CC(c1ccc(O)cc1)C1(O)CCCCC1` (centres unmarked) [desvenlafaxine succinate] yielded a surface area of 0.8457±0.0039 m^2/g. In addition, in data set [1] (listed as Desvenlafaxine succinate), the surface area entry is “approximately 0.8457±0.0039 m^2/g”. Also, in data set [2] (setting [3]), the “D50 (v) particle size” value is listed as “approximately 41 μm” and the “D90 (v) particle size” value is “approximately 155 μm”. Moreover, the “D10 (v) particle diameter less than” value in data set [2] (summary statement) is “approximately 4 μM”.
